From patent publication US6569832B1, “Inhibition of beta cell degeneration” (Novo Nordisk A/S, priority 1999, dated 2003)

Tests used:
beta-cells [1] = experiment: beta-cell proliferation rate (BrDU incorporation) in pancreas of treated ZDF rats; type: in vivo, male Zucker Diabetic Fatty fa/fa (ZDF) rat
Text: (§1) The male Zucker Diabetic Fatty fa/fa (ZDF) rat is a model of Type 2 diabetes. The rats are insulin resistant but normoglycemic from birth and they develop diabetes from about week 7 to week 10 of age. During the transitional period, the animals go through a state of impaired glucose tolerance. Although the animals are hyperinsulinemic before diabetes onset and during the early stages of diabetes, they later lose glucose-stimulated insulin secretion and finally become almost completely insulinopenic.
We have studied the effects of Arg^34, Lys^26(N-ε-(γ-Glu(N-α-hexadecanoyl)))-GLP-1(7-37) therapy during a period of time when the animals would normally progress from having impaired glucose tolerance to having overt Type 2 diabetes. Three groups of male ZDF rats (Genetic Models Inc, Indianapolis, Ind., USA) were studied and dosed subcutaneously bi-daily with either vehicle (group A), 30 (group B) or 150 μg/kg (group C) of Arg^34, Lys^26(N-ε-(γ-Glu(N-α-hexadecanoyl)))-GLP-1(7-37), n=6 per group. Animals were between 7 and 8 weeks old when dosing was initiated, and fed glucose levels were not different between the groups before dosing began.
Bromodeoxyuridine (BrDU) is incorporated in newly synthesized DNA and thus will label replicating cells. Six hours before sacrifice the rats were given an injection of 100 mg BrDU/kg intraperitoneally. […]

beta-cells [2] = experiment: volume fraction of beta-cells related to total pancreas volume in treated ZDF rats (point counting stereology); type: in vivo, male Zucker Diabetic Fatty fa/fa (ZDF) rat
Text: as §1
We have studied the effects of Arg^34, Lys^26(N-ε-(γ-Glu(N-α-hexadecanoyl)))-GLP-1(7-37) therapy during a period of time when the animals would normally progress from having impaired glucose tolerance to having overt Type 2 diabetes. […]
Neighbor sections were stained for insulin and the combination of glucagon-somatostatin-pancreatic polypeptide for the measurement of the relative mass of islet beta-cells and nonbeta-cells. […] The nonbeta-cells were stained with a mixture of monoclonal mouse anti-glucagon+rabbit anti-somatostatin+rabbit anti-pancreatic polypeptide, detected by biotinylated swine anti-multible Ig's, avidin peroxidase, and developed with DAB and CuSO4 to give a dark brown stain. […]

neonatal rat islet cells = experiment: cytokine-induced apoptosis in neonatal rat islet cells (annexin V-FITC/PI flow cytometry); type: cell-based
Experimental: Neonatal rats were sacrificed and pancreata were aseptically isolated. Islets of Langerhans were isolated by standard techniques. Intact islets were cultured in 6-well tissue culture plates at 750 islets/well (Nunc, Roskilde, Denmark) with or without 40 U/ml recombinant rat interleukin 1, 100 U/ml interferon-γ, and 100 U/ml tumor necrosis factor-α (all from Peprotech, London, UK) and the indicated doses of the GLP-1 derivative, Arg^34, Lys^26(N-ε-(γ-Glu(N-α-hexadecanoyl)))-GLP-1(7-37). After 24 hours of in vitro culture, single cell suspensions were obtained from the islets by gentle triturating in trypsin. After 2 rounds of washing, islet cells were reacted with annexin V-FITC and propedium iodide (PI) using a commercial staining kit according to the manufactures recommendations (Pharmingen, San Diego, Calif., USA). At the end of incubation the samples were analyzed by flow cytometry using a FACScalibur (Becton Dickinson, Mountain View, Calif., USA). Dead cells were excluded by gating on PI-negative cells, 25000 viable cells were acquired per sample. Data were analyzed using the CellQuest software (Becton Dickinson).

Arg^34, Lys^26(N-ε-(γ-Glu(N-α-hexadecanoyl)))-GLP-1(7-37)
beta-cell proliferation at the dose where volume of beta-cells increased (beta-cells [1]; 30 ng/g): proliferation was not seen
fraction of beta-cells that had incorporated BrDU (percentage of BrDU positive beta-cells) (beta-cells [1]; subcutaneously bi-daily 30 or 150 μg/kg vs vehicle, n=6 per group, BrDU 6 hours before sacrifice): dose dependent increase
beta-cell fraction of the total pancreas compared to vehicle treated rats (beta-cells [2]; 30 ng/g for 6 weeks): significantly higher
beta-cell fraction of the total pancreas, further increase over the 30 ng/g dose (beta-cells [2]; 150 ng/g): no further increase
reduction in the cytokine-induced apoptosis (neonatal rat islet cells; 100 nM, 24 hours with interleukin 1 40 U/ml, interferon-γ 100 U/ml, tumor necrosis factor-α 100 U/ml): approximately 50%
block of cytokine-induced apoptosis in islet cells ex vivo (neonatal rat islet cells; 24 hour incubation with cytokine mix): able to block
effect of the compound itself on the level of islet cell apoptosis (neonatal rat islet cells; without cytokine mix, 24 hours): no effect
